In patent US9662377B2, “Therapeutic composition for treatment of glioblastoma” (REGENTS OF THE UNIVERSITY OF MINNESOTA, priority 2010, dated 2017):

System: PBMCs from CMV sera-positive donors
Experiment: CMV assay (pp65-dependent IFNγ production)
Type: cell-based, human
Experimental: 5×10^5 HLA-A2^+ iDCs were pulsed with 100 μg of tumor lysates derived in 5% or 20% O2+/−10 μg of pp65 HLA-A2-restricted CMV antigen (NLVPMVATV) (SEQ ID NO: 15) and matured as described in the methods section. Following maturation, DCs were washed 3 times, and 5×10^5 PBMCs from CMV sera-positive donors were added to DCs. CMV sera-negative PBMCs were used as a negative control. Cells were incubated for 48 h, and supernatant was analyzed by cytometric bead array (BD Biosciences) for IFNγ. Cells were cultured for an additional 24 h, stained with anti-CD8, pp65 pentamer (ProImmune), and intracellularly stained for IFNγ production.
The inventors established an assay to determine if TLs altered DC-mediated CD8 T cell priming from a defined antigen not present in the TLs. To accomplish this, TLs were mixed with pp65 peptide, a specific marker antigen with well-defined CD8 T cell responses. […] Soluble IFNγ in the tissue culture supernatant was quantified as a measure of CD8 T cell activation. There was a background of […] of IFNγ detected in the supernatant when TLs were pulsed in the absence of pp65, possibly due to activation of T cells or natural killer (NK) cells irrespective of pp65 (FIG. 8B).

For NLVPMVATV [pp65], which “Response of sera-negative donor PBMCs” value (CMV sera-negative donor PBMCs) is on record?
The value was “did not respond”.

And the “IFNγ level above background” value (sera-positive donor PBMCs primed with pp65 alone (no TLs))?
The value was 2-4 fold.
